The test system of series [1] is human kidney microsomes. Nature of the series: P450-mediated N-oxidation in human kidney microsomes. In kind it is in vitro ADME. As to conditions: limit of detection 50 pmol/min/mg protein.
Series [2] has as its system mice. The following applies: cited from earlier work.
The conditions of series [3]: pH 7.0; cited from earlier work.
Series [4] has as its system calf thymus DNA. The series can be described thus: DNA adduct formation. In kind it is biochemical. The following applies: 0.5 μM, calf thymus DNA 0.4 mg/mL, pH 7.4, 30 min, 37 °C.
Series [5] has as its system human microsomes (liver, kidney, colon, rectum). Format: in vitro ADME. The following applies: 1 μM, pH 7.5.
The target in series [6] is T1, UGT1A9 (Homo sapiens, UniProt O60656).
T1 sequence (O60656 26-530): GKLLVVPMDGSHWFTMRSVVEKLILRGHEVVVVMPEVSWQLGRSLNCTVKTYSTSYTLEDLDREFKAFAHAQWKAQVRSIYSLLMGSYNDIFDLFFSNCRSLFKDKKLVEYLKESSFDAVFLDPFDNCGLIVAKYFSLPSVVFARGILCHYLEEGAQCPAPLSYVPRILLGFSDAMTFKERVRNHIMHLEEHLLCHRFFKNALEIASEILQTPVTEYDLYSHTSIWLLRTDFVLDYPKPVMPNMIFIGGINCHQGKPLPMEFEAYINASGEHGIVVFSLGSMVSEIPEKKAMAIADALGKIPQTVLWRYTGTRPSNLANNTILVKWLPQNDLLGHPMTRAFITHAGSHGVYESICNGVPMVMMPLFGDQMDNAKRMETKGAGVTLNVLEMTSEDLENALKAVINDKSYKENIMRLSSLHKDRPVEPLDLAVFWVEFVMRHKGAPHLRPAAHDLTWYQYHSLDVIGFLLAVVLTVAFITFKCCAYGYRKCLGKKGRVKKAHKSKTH
The following applies: cited from earlier work.

Series [7] concerns UGT1A1. As to conditions: cited from earlier work.
Series [8] concerns UGT2B10. As to conditions: cited from earlier work.
The target in series [9] is T1, UGT1A9. The series can be described thus: Inhibition of propofol glucuronidation in human liver microsomes. In kind it is biochemical. As to conditions: niflumic acid 0.1-2.5 μM, propofol 100 μM. On the technique in general: Liver microsomes are vesicles of endoplasmic reticulum, rich in cytochrome P450 enzymes.
The test system of series [10] is UGT1A1. The series can be described thus: Inhibition of estradiol-3-O-Gluc formation in human liver microsomes. As to conditions: niflumic acid 0.1-2.5 μM, estradiol 25 μM. In kind it is biochemical.
The test system of series [11] is human liver microsomes. The series can be described thus: Inhibition of HONH-AαC glucuronidation in human liver microsomes. In kind it is biochemical. As to conditions: niflumic acid 0.1-2.5 μM, HONH-AαC 1 μM.
Series [12] concerns human kidney microsomes. The series can be described thus: Inhibition of HONH-AαC glucuronidation in human kidney microsomes. Format: biochemical. As to conditions: niflumic acid 0.1-2.5 μM, HONH-AαC 1 μM.
Series [13] relates to other UGT1A and UGT2B isoforms. The following applies: cited from earlier work.
The test system of series [14] is UGT2B10. As to conditions: cited from earlier work. The source holds these as a separate data set.
Series [15] has as its system rodents. As to conditions: cited from earlier work.

For the compound `Nc1ccc2c(n1)[nH]c1ccccc12` [AαC, 2-Amino-9H-pyrido[2,3-b]indole], in series [1], the “rate of P450-mediated N-oxidation” value is recorded as “very low”. Also, the “mutations and early biomarkers of neoplasia” value in series [2] (colon of mice) is “induces lacI mutations and aberrant crypt foci”. For the same compound, the tumor induction entry in [2] (mice) is “induces liver and blood vessel tumors”.

`O=C(O)[C@H]1O[C@@H](ONc2ccc3c(n2)[nH]c2ccccc23)[C@H](O)[C@@H](O)[C@@H]1O` [AαC-HN^2-O-Gluc, O-(β-D-glucosidurony1)-2-hydroxyamino-9H-pyrido[2,3-b]indole]: in series [3], the half-life result was “exceeds 6 h”.

In the case of `O=C(O)[C@H]1O[C@@H](N(O)c2ccc3c(n2)[nH]c2ccccc23)[C@H](O)[C@@H](O)[C@@H]1O` [AαC-HON^2-Gluc, N^2-(β-D-glucosidurony1)-2-hydroxyamino-9H-pyrido[2,3-b]indole], the “DNA adduct formation (dG-C8-AαC / dG-C8-PhIP)” value in [4] is listed as “considerably lower than HONH-AαC”.

`ONc1ccc2c(n1)[nH]c1ccccc12` [HONH-AαC, 2-hydroxyamino-9H-pyrido[2,3-b]indole]: in series [4], the “DNA adduct formation (dG-C8-AαC / dG-C8-PhIP)” value is given as “comparable levels”. For the same compound, in series [5], the “principal Gluc conjugate formed” value is “AαC-HN^2-O-Gluc”. Besides, the “predominant Gluc conjugate formed” value in [5] (20 min) is “AαC-HON^2-Gluc”. Further, the Michaelis constant (Km) (commonly the concentration of substrate that gives half-maximal velocity) in [6] is 6.3 µM.

For `Cn1c(NO)nc2ncc(-c3ccccc3)cc21` [HONH-PhIP, 2-hydroxyamino-1-methyl-6-phenylimidazo[4,5-b]pyridine], in [4], the “DNA adduct formation (dG-C8-AαC / dG-C8-PhIP)” value is “comparable levels”. Besides, the Km in series [6] was 36 µM; in [7], 19 µM; in [8] it was 58 µM.

`O=C(O)c1cccnc1Nc1cccc(C(F)(F)F)c1` [Niflumic acid, niflumic acid]: in [9], the “inhibition of glucuronidation of propofol (UGT1A9 substrate)” value was “effective in inhibiting”. For the same compound, the “effect on formation of estradiol-3-O-Gluc (UGT1A1)” value in series [10] was “unaffected”. The “effect on AαC-HN^2-O-Gluc formation” value in series [11] was “concentration-dependent inhibition”; in [12], “greatly decreased”. Besides, the figures for the “effect on AαC-HON^2-Gluc formation” value in [11] and in series [12] were “unchanged” and “greatly decreased”, respectively. Besides, the “effect on activities of other UGT1A and UGT2B isoforms” value in series [13] was “little effect”. In addition, the “effect on UGT2B10 activity” value in series [14] is given as “does not alter”.

For the compound `Cn1c(N)nc2ncc(-c3ccccc3)cc21` [PhIP, 2-amino-1-methyl-6-phenylimidazo[4,5-b]pyridine], the “rate of P450-mediated N-oxidation” value in [1] was “very low”. Besides, the cancer induction entry in [15] was “induces lymphoma, pancreatic, colorectal, and prostate cancers”.

Turning to `Cn1c(NO[C@@H]2O[C@H](C(=O)O)[C@@H](O)[C@H](O)[C@H]2O)nc2ncc(-c3ccccc3)cc21` [PhIP-HN^2-O-Gluc, O-(β-D-glucosidurony1)-2-hydroxyamino-1-methyl-6-phenylimidazo[4,5-b]pyridine], the “DNA adduct formation (dG-C8-AαC / dG-C8-PhIP)” value in series [4] is “higher amounts of dG-C8-PhIP than HONH-PhIP”.

For the compound `Cn1c(N(O)[C@@H]2O[C@H](C(=O)O)[C@@H](O)[C@H](O)[C@H]2O)nc2ncc(-c3ccccc3)cc21` [PhIP-HON^2-Gluc, N^2-(β-D-glucosidurony1)-2-hydroxyamino-1-methyl-6-phenylimidazo[4,5-b]pyridine], the “DNA adduct formation (dG-C8-AαC / dG-C8-PhIP)” value in [4] is on record as “not detected”.
